The test system of one data set is mandarins. The data set can be described thus: Phytotoxicity observation in field trial 2014. Type of data set: in vivo. The following applies: field trial 2014 on mandarins, Syllit 544 g/l suspension concentrate. As to the method:
(§1) A field trial was conducted for the control of Alternaria alternata on mandarins in Alzira, Valencia, Spain. The product used was Syllit 544 g/l suspension concentrate. Mandarins were harvested and classified using the OECD criteria (international quality standard for citrus established by the Organisation for Economic Co-operation and Development in 2010).

In a further data set the test system is Alternaria alternata. The data set can be described thus: Field trial 2014, control of Alternaria alternata on mandarins (Alzira, Valencia, Spain). The data set is classed as in vivo. The note with it: Syllit 544 g/l suspension concentrate; spring, autumn and combined treatments; OECD criteria; FIG. 9. As for the experimental part: as §1

The structures appear in SMILES notation.

As to `CC(=O)O.CCCCCCCCCCCCNC(=N)N` [Dodine, 1-dodecylguanidiniumethanoate], the symptoms of phytotoxicity entry in the data set on mandarins is recorded as “No symptoms of phytotoxicity were observed”. The “percentage of fruits in the category Extra compared to control group” value in the data set on Alternaria alternata is “significantly higher percentage of fruit”.

The values above are taken from patent US20180007910A1, “FUNGICIDAL COMPOSITION EFFECTIVE AGAINST ALTERNARIA ON CITRUS” (ARYSTA LIFESCIENCE BENELUX SPRL, priority 2015, published 2018).
